Assay results reported in ChEMBL document CHEMBL5390227, “Development of QTMP: A promising anticancer agent through NP-Privileged Motif-Driven structural modulation” (Bioorg Med Chem, 2023).

Tests used:
HeLa [1] = assay: Antiproliferative activity against human HeLa cells assessed as inhibition of cell growth at 25 nM measured after 24 hrs by SRB assay relative to control; type: functional
HeLa [2] = assay: Antiproliferative activity against human HeLa cells assessed as reduction in cell growth by SRB assay; type: functional, cell-based

| SMILES | inhibition at 0.025 µM (HeLa [1]) [%] | IC50 (HeLa [2]) [µM] |
| --- | --- | --- |
| COc1cc(-c2nc(N)[nH]c2-c2ccc3ccccc3c2)cc(OC)c1OC | 34 |  |
| COc1ccc2ncc(-c3[nH]c(N)nc3-c3cc(OC)c(OC)c(OC)c3)cc2c1 | 30 |  |
| COc1cc(-c2nc(N)[nH]c2-c2cncc3ccccc23)cc(OC)c1OC | 47 | 0.041 |
| COc1cc(-c2nc(N)[nH]c2-c2ccc3cnccc3c2)cc(OC)c1OC | 46 | 0.046 |
| COc1cc(-c2nc(N)[nH]c2-c2cccc3cnccc23)cc(OC)c1OC | 43 |  |
| COc1cc(-c2nc(N)[nH]c2-c2cnc3ccc(Cl)cc3c2)cc(OC)c1OC | 11 |  |
| COc1cc(-c2nc(N)[nH]c2-c2ccnc3cc(Cl)ccc23)cc(OC)c1OC | 11 |  |
| COc1cc(-c2nc(N)[nH]c2-c2ccnc3ccccc23)cc(OC)c1OC | 7 |  |
